Test results reported in patent US12697325B2 (TENNOR THERAPEUTICS (SUZHOU) LIMITED, priority 2021, dated 2026).

Test system: clinical strains of Acinetobacter baumannii
Assay: Minimum inhibitory concentration (CLSI M07), Example 1, clinical strains
Format: cell-based
Conditions: combination MIC = sum of the concentrations of the two compounds
Protocol: The minimum inhibitory concentration (MIC) was determined in accordance with the requirements of the Clinical and Laboratory Standards Institute (CLSI) M07 (for aerobic bacteria).
3.1 The compounds were diluted with water up to 100 times of the highest concentration tested.
The dilution steps are as follows: first dilute the compounds or antibiotics to 100 times of the highest final concentration tested, and then:
A 50 μL of sterile water and 50 μL of avibactam sodium mother liquid were added into the A row of the second 96-well plate, and 50 μL of water was added into each of the remaining wells. A 50 μL of liquid was pipetted from the A row and added into the B row; after being pipetted up and down to even, 50 μL of the solution was pipetted and added to the C row, and diluted in a 2-fold gradient in turn for a total of 6 times and then, 50 μL was removed from each well of the G row to obtain the compound solution diluted to a 2-fold gradient and then 4 μL was transferred to a 96-well test plate.
Aerobic bacteria: the strains were inoculated on MHA one day in advance and incubated overnight at 37° C. On the day of the assay, 5-6 single colonies were picked and suspended evenly in saline, and the bacterial concentration was adjusted to the turbidity of 0.5 McFarland standard (concentration is about 1×10^8 CFU/mL). The bacterial suspension was diluted 200 times with the corresponding liquid culture medium (Table 1), i.e., at a bacterial concentration of ~5×10^5 CFU/ml, then 192 μL was transferred to a 96-well round bottom plate to obtain the test plate. Then, the 96-well round bottom plate obtained above was placed into an incubator at 37° C. and 85% humidity to incubate for 20 h.

CC1(C)[C@H](C(=O)[O][Na+])N2C(=O)C[C@H]2S1(=O)=O [Sulbactam sodium, sulbactam sodium]
MIC50 (Acinetobacter baumannii, read-out: MIC50): 32 µg/mL
MIC90 (Acinetobacter baumannii, read-out: MIC90): 32 µg/mL
MIC range: 8 to 32 µg/mL
